Measured values published in US20210324281A1, “FUEL DERIVED FROM RENEWABLE RESOURCES” (priority 2018, published 2021).

What was measured:
Escherichia coli = assay: Modified broth dilution in biphasic biofuel (Plantanol)/water system, turbidity at 600 nm; assay type: cell-based; settings: for bacterial growth (turbidity of the aqueous phase) / effect on bacterial growth compared with Staphylococcus aureus: FIG. 19; for effect on bacterial growth compared with Staphylococcus aureus: in Plantanol with solketal; for microbial growth (turbidity of the aqueous phase): FIG. 21
Description: (§1) The growth of microbes in the fuel is one of the main problems of biofuels, as set out above. The aim of the experiments was to investigate the bacterial growth in the biphasic biofuel/water system to see how the addition of an antimicrobial additive to the biofuel has an impact on the microbial growth in the aqueous bacteria solution. For this purpose, the so-called “broth dilution” method was modified and applied to the biphasic (biofuel+additive)/(water+bacteria) system.
(§2) This method represents a standard test for the investigation of bactericidal substances (e.g. antibiotics). At first, bacteria are incorporated in water that contains a nutrient medium (e.g. blood or yeast extracts). The potential antimicrobial agents are then added to the bacteria solution and the mixture is incubated over night at a certain temperature.
(§3) The concentration of bacteria can be measured by means of photometric spectroscopy as the presence of bacteria in a solution lead to turbidity. The higher the turbidity, the more bacteria are present in the solution. […] In some cases, the turbidity even decreases (=bacteria die).
(§4) The above-mentioned method was modified and applied to the biofuel/water system. For this purpose, there was one type of gram-negative (Escherichia coli) and gram-positive bacteria (Staphylococcus aureus) incorporated in each aqueous medium. The so-called “LB-medium” (lysogeny broth) was used as the nutrient medium. The biofuel (with and without additive) was then added to the bacteria solution leading to a phase separation of the biofuel (top) and aqueous medium (bottom).
(§5) The samples were incubated in a so-called incubator shaker, to ensure a good mixing of the two phases. Thereafter, the samples were taken out of the incubator and it was waited until complete phase separation occurred (˜30 minutes). Lastly, the aqueous phase was transferred and measured photometrically at a wavelength of A=600 nm.
(§6) Thus, the turbidity of the aqueous phase solely arises from the bacteria's presence in the water. Depending on the magnitude of the turbidity, it can be concluded whether and how the addition of a certain compound to the biofuel affects the bacterial growth in the aqueous medium.
(§7) For this purpose, different concentrations of antimicrobial substances were added to the biofuel and the effect of these substances on the turbidity of the samples was investigated. On the one hand, hydrophobic, biofuel-soluble bactericides were used (Eugenol, Carvacrol) and on the other hand hydrophilic, biofuel-insoluble substances (caffeic acid, gallic acid, ferulic acid) were used. The glycerol derivative solketal was used to make the hydrophilic substances soluble in the biofuel.
(§8) The chosen concentrations for Grotamar82 and Liqui Moly were the ones recommended by the manufacturer. For both products, there is a recommended concentration for prevention of diesel bug as well as a recommended “shock dosage” in case of an already existing microbial contamination. 1000 ppm of Grotamar82 as well 5000 ppm of the product by Liqui Moly are recommended as a “shock dosage” while 250 ppm and 1000 ppm are recommended to achieve an effective protection against diesel bug.
(§9) Additionally, formaldehyde was added to the Plantanol as the kinetics of the hydrolysis of MBO (cf. the above scheme) in Grotamar82 were not known. Grotamar82 contains about 20% of MBO, according to the manufacturer. Thus, a complete hydrolysis of the MBO in 250 ppm and 1000 ppm Grotamar82 would result in the production of 50 ppm and 200 ppm of formaldehyde respectively.

Staphylococcus aureus = assay: as above; assay type: cell-based; settings: for amount needed relative to ferulic acid to achieve the same effect: 10 wt.-% versus 0.25 wt.-% ferulic acid in Plantanol; for absorbance of the aqueous phase after incubation: medium pre-incubation 0.12, FIG. 20
Description: as §1, §2, §3, §4, §5, §6, §7, §8, §9

[1] = RapidOxy oxidative stability measurement (DIN EN 16091, 140° C., 700 kPa oxygen); assay type: physicochemical; settings: for oxidative stability standard according to EN 14214: 500 ppm in Plantanol with 1 wt.-% solketal, FIG. 15; for oxidative stability of the single, pure component: standard: induction time above 33.3 min, FIG. 8
Procedure: In this method, the pressure of a closed, with oxygen filled and afterwards heated sample chamber is measured against time. […] Therefore, the samples are heated up to 140° C. with an oxygen pressure of 700 kPa. […] The incubation time is the period between the start of the experiment and until the pressure dropped by 10% compared to the maximum pressure in the sample chamber. In FIG. 8 etc., this limit is indicated by a dashed line.
For this purpose, the samples were heated up to 140° C. at 700 kPa in an oxygen atmosphere. Thereafter the device measured the pressure with respect to the time. The measurement automatically stopped once a decrease of the pressure of 10% occurred. The time needed for this decrease by 10% is called “induction time” and represents a characteristic quantity for the oxidative stability of a fuel. The quantity “ppm” (parts per million) in the present experimental examples refers to a molar ratio (n/n), if not stated otherwise.

[2] = Solubilisation of hydrophilic antioxidants in biofuel by glycerol derivatives; assay type: physicochemical
Procedure: As a proof of concept, analogous experiments were carried out with the biofuel “Plantanol” from industry. […] The samples were prepared by dissolving the respective antioxidants in solketal.

[3] = 330 ppm in 63/27/10 biodiesel (FAME)/rapeseed oil/solketal, FIG. 14
[4] = 0.1-0.25 wt.-% in Plantanol, solubilised with solketal, FIG. 18
[5] = 333 ppm in 63/27/10 FAME/rapeseed oil/solketal, FIG. 16

Which “bacterial growth (turbidity of the aqueous phase)” value (Escherichia coli; 10 wt.-% in Plantanol) does the source give for `Cc1ccc(C(C)C)cc1O` [Carvacrol, reference compound] here?
Its value is “distinctly reduced it”.

And the “bacterial growth (turbidity of the aqueous phase)” value (Staphylococcus aureus; 2 wt.-% in Plantanol, FIG. 18)?
The value was “no effect on the bacterial growth”.

What about the “bacterial growth (turbidity of the aqueous phase)” value (Staphylococcus aureus; 10 wt.-% in Plantanol, FIG. 18) of the same molecule?
The value was “completely inhibited the growth”.

What about the “amount needed relative to ferulic acid to achieve the same effect” value (Staphylococcus aureus) of the same molecule?
Its value is 40 times.

Which “bacterial growth (turbidity of the aqueous phase)” value (Escherichia coli; 10 wt.-% in Plantanol) does the source give for `C=CCc1ccc(O)c(OC)c1` [Eugenol, reference compound] here?
The value was “distinctly reduced it”.

What about the “bacterial growth (turbidity of the aqueous phase)” value (Staphylococcus aureus; 2 wt.-% in Plantanol, FIG. 18) of the same molecule?
Its value is “no effect on the bacterial growth”.

What about the “bacterial growth (turbidity of the aqueous phase)” value (Staphylococcus aureus; 10 wt.-% in Plantanol, FIG. 18) of the same molecule?
The value was “completely inhibited the growth”.

And the “amount needed relative to ferulic acid to achieve the same effect” value (Staphylococcus aureus)?
Its value is 40 times.

Which “oxidative stability standard according to EN 14214” value [1] does the source give for `CC(C)(C)c1cc(O)ccc1O` [TBHQ, 2-tert-butyl hydroquinone, reference compound] here?
The value was “not reached”.

With `CCCC(=O)OCC(COC(=O)CCC)OC(=O)CCC` [Tributyrin, glycerol tributyrate] as the molecule, how does the “oxidative stability of the single, pure component” value [1] read?
Its value is “insensitive toward oxidation”.

With `O=C(O)/C=C/c1ccc(O)c(O)c1` [caffeic acid] as the molecule, how does the “oxidative stability of the biofuel (EN 14214)” value [1, 3] read?
Its value is “enough to make the biofuel fulfil the standard”.

And the “amount of solketal found preferable to solubilize the additive” value ([2]; 0.1 wt % of additive in Plantanol)?
Its value is “up to 10 wt %”.

And the “effect on bacterial growth compared with Staphylococcus aureus” value (Escherichia coli)?
Its value is “smaller effect on the E.-coli bacteria than they had on the Staphylococcus aureus”.

What about the “bacterial growth (turbidity of the aqueous phase)” value (Staphylococcus aureus; [4]) of the same molecule?
Its value is “distinctly reduced”.

With `COc1cc(/C=C/C(=O)O)ccc1O` [ferulic acid] as the molecule, how does the “microbial growth (turbidity of the aqueous phase)” value (from here on “microbial growth”) (Escherichia coli; 0.1 wt % in solketal, in Plantanol) read?
Its value is “significantly decreased microbial growth”.

And the “microbial growth” value (Escherichia coli; 0.25 wt % in Plantanol)?
Its value is “No growth of bacteria was observable”.

What about the “bacterial growth (turbidity of the aqueous phase)” value (Escherichia coli; 0.25 wt.-% in Plantanol) of the same molecule?
The value was “distinctly reduced it”.

And the “microbial growth” value (Escherichia coli; 0.50 wt % in Plantanol)?
The value was “No growth of bacteria was observable”.

What about the “bacterial growth (turbidity of the aqueous phase)” value (Staphylococcus aureus; 0.1 wt % dissolved in solketal, in Plantanol, FIG. 20) of the same molecule?
The value was “drastically decreases”.

What about the “absorbance of the aqueous phase after incubation” value (Staphylococcus aureus; 0.25 wt % in solketal/Plantanol) of the same molecule?
The value was “below 0.12”.

And the “bacterial growth (turbidity of the aqueous phase)” value (Staphylococcus aureus; 0.25 wt.-% in Plantanol, FIG. 18)?
Its value is “complete inhibition”.

And the “absorbance of the aqueous phase after incubation” value (Staphylococcus aureus; 0.5 wt % in solketal/Plantanol)?
Its value is “below 0.12”.

With `O=C(O)c1cc(O)c(O)c(O)c1` [gallic acid] as the molecule, how does the “oxidative stability of the biofuel (EN 14214)” value [1, 3] read?
The value was “enough to make the biofuel fulfil the standard”.

And the “oxidative stability of the biofuel (EN 14214)” value [1, 5]?
The value was “stabilization above the minimum of EN 14214”.

What about the “induction time versus concentration, ranking” value ([1]; solketal system, higher concentrations, FIG. 11) of the same molecule?
Its value is “most effective”.

And the “amount of solketal sufficient to solubilize the additive” value ([2]; 500 ppm of additive in Plantanol)?
Its value is < 0.5 wt %.

What about the “effect on bacterial growth compared with Staphylococcus aureus” value (Escherichia coli) of the same molecule?
Its value is “smaller effect on the E.-coli bacteria than they had on the Staphylococcus aureus”.

What about the “bacterial growth (turbidity of the aqueous phase)” value (Staphylococcus aureus; [4]) of the same molecule?
Its value is “distinctly reduced”.

For `Oc1ccc(O)cc1` [hydroquinone, reference compound], which “oxidative stability of the biofuel” value ([1]; 0.2 wt.-% in solketal system (60 wt.-% FAME, 30 wt.-% rapeseed oil, 10 wt.-% solketal), FIG. 9) is on record?
Its value is “distinctly increased”.

What about the “oxidative stability of the biofuel” value ([1]; 160 ppm in solketal system (60/30/10), FIG. 9) of the same molecule?
Its value is “not enough to fulfill the standard”.

And the “oxidative stability of the biofuel (EN 14214)” value [1, 3]?
Its value is “enough to make the biofuel fulfil the standard”.

And the “oxidative stability standard according to EN 14214” value [1]?
The value was “not reached”.

With `OCCc1ccc(O)c(O)c1` [hydroxytyrosol] as the molecule, how does the “oxidative stability of the biofuel (EN 14214)” value [1, 3] read?
Its value is “enough to make the biofuel fulfil the standard”.

And the “oxidative stability of the biofuel (EN 14214)” value [1, 5]?
The value was “stabilization above the minimum of EN 14214”.

Which “oxidative stability of the biofuel” value ([1]; tributyrin system (60 wt.-% FAME, 30 wt.-% rapeseed oil, 10 wt.-% tributyrin), FIG. 12) does the source give for `CCCOC(=O)c1cc(O)c(O)c(O)c1` [propyl gallate] here?
Its value is “the higher the concentration of the antioxidant, the better the stability toward oxidation is”.

For `O=c1c(O)c(-c2ccc(O)c(O)c2)oc2cc(O)cc(O)c12` [quercetin], which “oxidative stability of the biofuel (EN 14214)” value [1, 3] is on record?
The value was “enough to make the biofuel fulfil the standard”.

With `CC1(C)OCC(CO)O1` (stereo not shown) [solketal, isopropylideneglycerol] as the molecule, how does the “oxidative stability of the single, pure component” value [1] read?
Its value is “oxidised nearly as fast as 2-methylfuran”.

What does the source list for `O=C1O[C@H]([C@@H](O)CO)C(O)=C1O` [vitamin C, ascorbic acid]?
effect of addition on oxidative stability ([1]; 167 ppm added to the system containing 333 ppm DHB, FIG. 16): no effect on the overall stability; effect of addition on oxidative stability ([1]; 167 ppm added to the system containing 333 ppm GA, FIG. 16): distinct increase of the oxidative stability; effect of addition on oxidative stability ([1]; 167 ppm added to the system containing 333 ppm HT, FIG. 16): distinct increase of the oxidative stability
